Where two headings read alike, the source gives them in different places.
Target: α-glucosidase (E.C.3.2.1.20)
Assay: α-Glucosidase enzyme inhibition assay (PNP-G substrate, spectrophotometric)
Assay type: biochemical
Procedure: α-Glucosidase (E.C.3.2.1.20) enzyme inhibition assay was performed according to the slightly modified method of Matsui et al. α-glucosidase (E.C.3.2.1.20) from Saccharomyces species, purchased from Wako Pure Chemical Industries Ltd. (Wako 076-02841). The enzyme inhibition was measured spectrophotometrically at pH 6.9 and at 37° C. using 0.7 mM p-nitrophenyl-α-D-glucopyranoside (PNP-G) as a substrate and 500 m units/mL enzyme, in 50 mM sodium phosphate buffer containing 100 mM NaCl. […] The increment in absorption at 400 nm, due to the hydrolysis of PNP-G by α-glucosidase, was monitored continuously on microplate spectrophotometer (Spectra Max Molecular Devices, USA).) [T. Matsui, C. Yoshimoto, K. Osajima, T. Oki, and Y. Osajima. Biosci. Biotech. Biochem., 1996, 60, 2019].

[1] = in vitro, pH 6.9, 37° C., 0.7 mM PNP-G substrate, 500 m units/mL enzyme, read-out: IC50 ± SEM
[2] = running text b24, unit inferred, read-out: IC50 (inhibitory effect on the enzyme)

Row | SMILES | IC50 [1] | IC50 [2]
1 | C[C@@]12CCC[C@@](C)(C(=O)O[C@@H]3O[C@H](CO)[C@@H](O)[C@H](O)[C@H]3O)[C@H]1CC[C@@]13C[C@@H](CC[C@H]12)[C@@](O)(CO)C3 (single isomer, unassigned; ent-1) [Compound 1, 16, β-17-hydroxy-ent-1-α-auzan 19-O-D-glucopyranosyl ester] | 407 ± 20 µM | 407 ± 20 µM
2 | C[C@@]12CCC[C@@](C)(C(=O)O)[C@H]1CC[C@@]13C[C@@H](CC[C@H]12)[C@@](O)(CO)C3 (single isomer, unassigned; ent-16) [Compound 2, ent-16,17-dihydroxy-(−)-kauran-19-oic acid] | 62.2 µM | 62.2 ± 0.008 µM

Source: patent publication US20070287674A1, “New treatment of diabetes mellitus” (HEJ RESEARCH INSTITUTE OF CHEMISTRY, priority 2006, published 2007)
